Active and inactive are the calls of the source. No cut-off for these calls is given here.
Key:
[1] = test system: RAW264.7; assay: Cytotoxicity against mouse RAW 264.7 cells assessed as reduction in cell proliferation at 25 uM by MTT assay; format: cell-based; settings: raw264.7, 25 µM
[2] = test system: Mus musculus; assay: Anti-inflammatory activity against LPS-induced ALI Kunming mouse model assessed as reduction in iNOS level in serum at 3.125 to 12.5 mg/kg, po administered 4 hrs prior to LPS instillation and measured at 12 hrs post-LPS instillation by ELISA; format: functional, organism-based; settings: dose mg/kg 3.125-12.5, time 16.0 hrs
[3] = test system: RAW264.7; assay: Antiinflammatory activity in mouse RAW264.7 cells assessed as reduction in LPS-induced TNF-alpha production at 12.5 uM measured after 24 hrs by ELISA; format: functional, cell-based
[4] = test system: RAW264.7; assay: Anti-inflammatory activity in mouse RAW264.7 cells assessed as reduction in LPS-induced iNOS mRNA expression at 12.5 uM by RT-PCR analysis; format: functional, cell-based
[5] = test system: Mus musculus; assay: Anti-inflammatory activity against LPS-induced ALI Kunming mouse model assessed as reduction in TNF-alpha level in serum at 3.125 to 12.5 mg/kg, po administered 4 hrs prior to LPS instillation and measured at 12 hrs post-LPS instillation by ELISA; format: functional, organism-based; settings: dose mg/kg 3.125-12.5, time 16.0 hrs
[6] = target: T1, Nitric oxide synthase, inducible (Mus musculus, UniProt P29477); assay: Inhibition of iNOS in mouse RAW264.7 cells assessed as inhibition of LPS-induced nitric oxide overproduction incubated for 24 hrs by Griess assay; format: cell-based
T1 sequence (P29477 whole entry): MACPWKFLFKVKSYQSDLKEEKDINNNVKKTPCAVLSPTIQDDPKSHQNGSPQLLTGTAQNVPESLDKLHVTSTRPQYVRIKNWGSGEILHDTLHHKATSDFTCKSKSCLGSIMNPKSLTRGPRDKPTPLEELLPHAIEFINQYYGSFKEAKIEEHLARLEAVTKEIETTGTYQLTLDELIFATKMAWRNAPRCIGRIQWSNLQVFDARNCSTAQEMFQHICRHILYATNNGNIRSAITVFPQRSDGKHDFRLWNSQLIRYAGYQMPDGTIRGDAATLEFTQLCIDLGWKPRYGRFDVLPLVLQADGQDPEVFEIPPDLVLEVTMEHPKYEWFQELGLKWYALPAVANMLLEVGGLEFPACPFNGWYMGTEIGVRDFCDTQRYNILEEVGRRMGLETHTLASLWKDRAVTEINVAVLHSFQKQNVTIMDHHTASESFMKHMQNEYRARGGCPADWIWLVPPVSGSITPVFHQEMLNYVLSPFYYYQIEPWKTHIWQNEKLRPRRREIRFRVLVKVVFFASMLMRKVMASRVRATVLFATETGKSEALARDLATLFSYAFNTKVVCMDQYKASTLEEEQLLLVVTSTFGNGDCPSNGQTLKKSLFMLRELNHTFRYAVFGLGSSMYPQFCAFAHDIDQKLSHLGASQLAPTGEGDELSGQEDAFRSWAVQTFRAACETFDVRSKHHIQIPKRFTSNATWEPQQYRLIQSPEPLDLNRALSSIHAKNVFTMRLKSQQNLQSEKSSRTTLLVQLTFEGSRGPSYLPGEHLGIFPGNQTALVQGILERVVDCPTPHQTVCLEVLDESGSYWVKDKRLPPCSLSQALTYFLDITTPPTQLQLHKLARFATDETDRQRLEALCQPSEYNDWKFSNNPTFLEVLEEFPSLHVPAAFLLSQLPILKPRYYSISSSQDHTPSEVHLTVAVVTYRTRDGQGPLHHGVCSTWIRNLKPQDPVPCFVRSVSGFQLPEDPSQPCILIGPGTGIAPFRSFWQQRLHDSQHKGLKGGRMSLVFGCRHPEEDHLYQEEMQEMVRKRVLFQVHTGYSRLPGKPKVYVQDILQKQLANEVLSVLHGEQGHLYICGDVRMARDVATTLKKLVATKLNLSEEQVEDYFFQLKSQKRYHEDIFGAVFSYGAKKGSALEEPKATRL

[7] = test system: Mus musculus; assay: Anti-inflammatory activity against LPS-induced ALI Kunming mouse model assessed as reduction in lung edema by measuring reduction in lung wet-to-dry ratio at 3.125 to 12.5 mg/kg, po administered 4 hrs prior to LPS instillation and measured at 12 hrs post-LPS instillation; format: functional, organism-based; settings: dose mg/kg 3.125-12.5, time 16.0 hrs
[8] = test system: Mus musculus; assay: Anti-inflammatory activity in Kunming mouse assessed as inhibition of xylene-induced ear edema at 12.5 mg/kg, po dosed 1 hr prior to xylene challenge and measured at 30 mins post xylene injection relative to control; format: functional; settings: 1.5 h, time 90 min
[9] = test system: Mus musculus; assay: Anti-inflammatory activity against LPS-induced ALI Kunming mouse model assessed as reduction in IL-6 level in serum at 3.125 to 12.5 mg/kg, po administered 4 hrs prior to LPS instillation and measured at 12 hrs post-LPS instillation by ELISA; format: functional, organism-based; settings: dose mg/kg 3.125-12.5, time 16.0 hrs
[10] = test system: Mus musculus; assay: Anti-inflammatory activity against LPS-induced ALI Kunming mouse model assessed as reduction in iNOS expression in lung at 3.125 to 12.5 mg/kg, po administered 4 hrs prior to LPS instillation and measured at 12 hrs post-LPS instillation by immunohistochemistry; format: functional, organism-based; settings: dose mg/kg 3.125-12.5, time 16.0 hrs
[11] = test system: Mus musculus; assay: Anti-inflammatory activity against LPS-induced ALI Kunming mouse model assessed as reduction in IL-1 beta level in serum at 3.125 to 12.5 mg/kg, po administered 4 hrs prior to LPS instillation and measured at 12 hrs post-LPS instillation by ELISA; format: functional, organism-based; settings: dose mg/kg 3.125-12.5, time 16.0 hrs
[12] = test system: Mus musculus; assay: Anti-inflammatory activity against LPS-induced ALI Kunming mouse model assessed as reduction in neutrophil infiltration in lungs by measuring decrease in MPO activity at 3.125 to 12.5 mg/kg, po administered 4 hrs prior to LPS instillation and measured at 12 hrs post-LPS instillation; format: functional, organism-based; settings: dose mg/kg 3.125-12.5, time 16.0 hrs
[13] = test system: RAW264.7; assay: Antiinflammatory activity in mouse RAW264.7 cells assessed as reduction in LPS-induced IL-1 beta production at 12.5 uM measured after 24 hrs by ELISA; format: functional, cell-based
[14] = test system: Mus musculus; assay: Anti-inflammatory activity against LPS-induced ALI Kunming mouse model assessed as reduction in inflammatory infiltration in lungs and pulmonary congestion at 3.125 to 12.5 mg/kg, po administered 4 hrs prior to LPS instillation and measured at 12 hrs post-LPS instillation by hematoxylin-eosin staining based analysis; format: functional, organism-based; settings: dose mg/kg 3.125-12.5, time 16.0 hrs
[15] = test system: RAW264.7; assay: Antiinflammatory activity in mouse RAW264.7 cells assessed as reduction in LPS-induced IL-6 production at 12.5 uM measured after 24 hrs by ELISA; format: functional, cell-based
[16] = test system: RAW264.7; assay: Anti-inflammatory activity in mouse RAW264.7 cells assessed as inhibition of LPS-induced nitric oxide synthase production measured after 24 hrs by ELISA; format: functional, cell-based; settings: RAW264.7, 24 h
[17] = species on record: Mus musculus; settings: Kunming, dose 12.5 mg/kg, time 90.0 min

Row | Structure (SMILES) | Activity [1] | Activity [3] | IC50 [6] [µM] | inhibition in vivo at 12.5 mg/kg [8] [%] | Activity [13] | Activity [15] | IC50 [16] [µM] | further results
1 | Cc1ccccc1S(=O)(=O)Oc1cccc2oc(=O)n(CCc3ccccc3)c12 | Non-Toxic |  |  |  |  |  |  | 
2 | Cn1cnc(S(=O)(=O)Oc2cccc3oc(=O)n(Cc4ccc([N+](=O)[O-])cc4)c23)c1 | Non-Toxic |  |  |  |  |  |  | 
3 | CN(C)c1cccc2c(S(=O)(=O)Oc3cccc4oc(=O)n(CCc5ccccc5)c34)cccc12 | Non-Toxic | Active | 14.7 | > 50 | Active | Active | 3.34 | Activity [2]: Dose-dependent effect; Activity [4]: Active; Activity [5]: Dose-dependent effect; Activity [7]: Dose-dependent effect; Activity [9]: Dose-dependent effect; Activity [10]: Dose-dependent effect; Activity [11]: Dose-dependent effect; Activity [12]: Dose-dependent effect; Activity [14]: Dose-dependent effect
4 | Cn1cnc(S(=O)(=O)Oc2cccc3oc(=O)n(CCc4ccccc4)c23)c1 | Non-Toxic | Active | 13.4 | > 50 | Active | Active | 9.73 | 
5 | Cc1ccc(Cn2c(=O)oc3cccc(OS(=O)(=O)c4cn(C)cn4)c32)cc1 | Non-Toxic |  |  |  |  |  |  | 
6 | N=C(NCCC[C@H](N)C(=O)O)N[N+](=O)[O-] [NITROARGININE] |  |  | 27.6 |  |  |  | 2.92 | inhibition [17]: Active
7 | Cn1cnc(S(=O)(=O)Oc2cccc3oc(=O)n(Cc4ccccc4)c23)c1 | Non-Toxic | Active |  | > 50 | Active | Active |  | 
8 | CN(C)c1cccc2c(S(=O)(=O)Oc3cccc4oc(=O)n(Cc5ccccc5)c34)cccc12 | Non-Toxic | Active | 16.4 | > 50 | Active | Active | 4.61 | 
